The nature of data set [1]: Interconversion of huUgn A and B isomers in vitro (storage at −80° C.; pH 4, 50° C.). The format is physicochemical. Conditions: LC-MS at periodic intervals. On the procedure:
FIG. 2C is a graph showing the amount of “UgnA like” activity as a function of time in cells treated with either huUgnA and huUgnB. The A and B isomers (filled and open circles, respectively) interconvert slowly in vitro. Peptides were incubated at 50° C. in 1 mM citrate buffer (pH 4) for either 0, 24, or 48 hr. Samples were then diluted into bioassay medium, the pH was adjusted to 7.0, and activity was measured in the T84 cell bioassay. A huUgnA standard curve was generated in the same assay, and cyclic GMP responses were converted to recoveries of “UgnA-like” peptide by interpolation on this standard curve.
HPLC analysis and mass spectroscopy of Ugn isomers. The integrity and purity of huUgnA and B isomer preparations were confirmed by liquid chromatography/mass spectroscopy (LC-MS) analysis. The two Ugn isomers have different retention times on a reverse phase HPLC column (FIG. 1, dashed trace; huUgnA elutes ˜0.35 minutes before huUgnB). Separations were performed on a Hypersil Gold AQ 2.1×50 mm column from Thermo Fisher Scientific Inc (Waltham, Mass.) equilibrated in 98% buffer A (0.1% formic acid), 2% buffer B (85:10:5 Acetonitrile/Isopropyl Alcohol/5 mM NH4OAc pH 5.8) with a flow rate of 0.4 ml/min on an Acquity HPLC system. […]

Data set [2] is described as follows: Urinary excretion and isomer identity after iv infusion (T84 bioassay and LC-MS of urine). The format is in vivo, rat. Particulars: for stability of identity and properties in vivo: infused rats; for GC-C stimulating activity recovered in urine: T84 bioassay. On the procedure: FIG. 3A is a graph showing urinary excretion of “UgnA like” activity as a function of time in animals treated with the either huUgnA (filled symbols) or huUgnB (open symbols). huUgn was infused into an anesthetized rat during the period indicated by the horizontal bar. […] A sample of the urine acquired during each clearance period was evaluated for activity in the T84 cell bioassay. The resulting cyclic GMP responses were then converted to apparent recoveries of “UgnA-like” peptide by interpolation on a huUgnA standard curve (constructed as in FIG. 1A). Appropriate dilutions were chosen to ensure that the activity in each sample would not saturate this assay.
(§1) After post-surgical equilibration (−60 min) and three 20 min control clearance periods, huUgnA or B was infused into the jugular vein at 10 μl/min over a 60 min period, followed by a return to isotonic saline for the remainder of the experiment. The infused doses of huUgnA were 12, 25, 50, 100, or 200 nmol/kg BW in a total of 38 rats; huUgnB doses were 9, 18, 35, 70, and 140 nmol/kg BW in 35 rats. A UgnA mimetic, E. coli STh (ST-core), was infused into a third group of 32 rats at doses of 17, 32, 66, 133, and 266 nmol/kg. Renal excretory responses to these infusions were slow to develop and long lasting, so clearance periods were continued for 2-3 hr after the termination of the peptide infusion. This protracted time course limited protocols to one dose of one peptide in each rat. A control group of 10 rats received isotonic saline at 10 μl/min in place of the peptide infusion, but was otherwise treated in the same way as the experimental groups.
HPLC analysis and mass spectroscopy of Ugn isomers. The integrity and purity of huUgnA and B isomer preparations were confirmed by liquid chromatography/mass spectroscopy (LC-MS) analysis. The two Ugn isomers have different retention times on a reverse phase HPLC column (FIG. 1, dashed trace; huUgnA elutes ˜0.35 minutes before huUgnB). Separations were performed on a Hypersil Gold AQ 2.1×50 mm column from Thermo Fisher Scientific Inc (Waltham, Mass.) equilibrated in 98% buffer A (0.1% formic acid), 2% buffer B (85:10:5 Acetonitrile/Isopropyl Alcohol/5 mM NH4OAc pH 5.8) with a flow rate of 0.4 ml/min on an Acquity HPLC system. After a 2.5 minute wash with the same buffers, peptides were eluted with a linear gradient of 2% buffer B to 80% buffer B over 25 minutes and held for one minute before an increase to 90% B over 2 minutes to wash the column, followed by a return to 2% buffer B over 3 minutes.
Peptide masses were determined using a Micromass Q-T of II instrument equipped with an electrospray ionization (ESI) source operating in positive ion mode. The instrument was programmed to scan in the mass range of m/z 100 to 1800. Molecular weight predictions and data analysis were carried out with MassLynx version 4.0 software. […] were injected directly without any sample preparation using an Acquity HPLC system connected in line with the Q-T of II.
Bioassay of huUgnA-like activity. The concentration of huUgnA-like bioactivity in infused peptide solutions and in urine collected during experiments was measured using a T84 cell-based bioassay, as described previously. T84 cells are a colon carcinoma cell line that increases cyclic GMP production in response to GC-C receptor agonists such as Ugn, Gn and ST core peptide. T84 cells were grown to near confluence in 12 well culture clusters, and then incubated with unknowns or standard concentrations of huUgnA. Standards or urine samples were diluted into bioassay medium (1 mM 3-isobutyl-1-methylxanthine, 0.03 mM phenol red, 137 mM NaCl, 5.4 mM KCl, 0.25 mM Na2HPO4, 0.44 mM KH2PO4, 1.3 mM CaCl2, 1.0 mM MgSO4, 4.2 mM NaHCO3, 10 mM HEPES buffered at pH 7.0) and the pH was adjusted to 7.0, if required, using the phenol red indicator dye as a guide. This pH adjustment was necessary, as it is well-established that the response of T84 cells to UGn is highly pH dependent. […]

The subject of a further data set is anesthetized rats. The experiment in a line: Urine flow rate during and after iv peptide infusion. The format is in vivo, rat. On the procedure: Rats were not fasted prior to clearance experiments and ranged in weight from 250-340 g at the time of study. Anesthesia was induced with an intraperitoneal injection of pentobarbital sodium (55 mg/kg BW) and maintained at a surgical plane by intermittent intravenous supplementation. Core temperature was maintained at 37° C. by a servo-controlled, heated operating table. Animals breathed spontaneously through a PE240 cannula inserted into the trachea. A jugular vein was catheterized with PE50 cannula tubing for intravenous infusion of isotonic saline containing FITC-labeled inulin (0.4% W/V, Sigma, St Louis Mo.) and two PE10 cannulae, one for supplemental anesthetic and the other for peptide infusions (described below in the experimental protocol section). The ureters were exposed through a midline ventral incision and cannulated with PE10 tubing about one cm from each kidney. Urine was collected over 20 min periods and the volume estimated by weight. A femoral artery was cannulated with PE50 tubing for continuous measurement of arterial blood pressure and intermittent blood samples (50 μl), taken at the mid point of each urine collection.
as §1
Group comparisons were made with one way analysis of variance (ANOVA) using peptide doses as column variables. Columns were further divided into pre-infusion, infusion, and post infusion subgroups to facilitate post hoc testing with Bonferroni's method for selected multiple comparisons. Row variables were individual measurements from each clearance period for each rat. Responses were tested for statistical significance by comparing control values during the pre-infusion, infusion and post infusion collection periods with corresponding values obtained from peptide-infused rats. Each experimental group included 5 different doses of huUgnA, huUgnB, or ST-core. Thus, fifteen comparisons were required for each measured variable in each group.

Data set [3] addresses cultured GC-C-expressing cells (Homo sapiens, UniProt P25092). Conditions: cited from earlier work.

One may read the EC50 as the concentration needed to bring the measured effect to its halfway point.

Chain of cultured GC-C-expressing cells (P25092 24-1073): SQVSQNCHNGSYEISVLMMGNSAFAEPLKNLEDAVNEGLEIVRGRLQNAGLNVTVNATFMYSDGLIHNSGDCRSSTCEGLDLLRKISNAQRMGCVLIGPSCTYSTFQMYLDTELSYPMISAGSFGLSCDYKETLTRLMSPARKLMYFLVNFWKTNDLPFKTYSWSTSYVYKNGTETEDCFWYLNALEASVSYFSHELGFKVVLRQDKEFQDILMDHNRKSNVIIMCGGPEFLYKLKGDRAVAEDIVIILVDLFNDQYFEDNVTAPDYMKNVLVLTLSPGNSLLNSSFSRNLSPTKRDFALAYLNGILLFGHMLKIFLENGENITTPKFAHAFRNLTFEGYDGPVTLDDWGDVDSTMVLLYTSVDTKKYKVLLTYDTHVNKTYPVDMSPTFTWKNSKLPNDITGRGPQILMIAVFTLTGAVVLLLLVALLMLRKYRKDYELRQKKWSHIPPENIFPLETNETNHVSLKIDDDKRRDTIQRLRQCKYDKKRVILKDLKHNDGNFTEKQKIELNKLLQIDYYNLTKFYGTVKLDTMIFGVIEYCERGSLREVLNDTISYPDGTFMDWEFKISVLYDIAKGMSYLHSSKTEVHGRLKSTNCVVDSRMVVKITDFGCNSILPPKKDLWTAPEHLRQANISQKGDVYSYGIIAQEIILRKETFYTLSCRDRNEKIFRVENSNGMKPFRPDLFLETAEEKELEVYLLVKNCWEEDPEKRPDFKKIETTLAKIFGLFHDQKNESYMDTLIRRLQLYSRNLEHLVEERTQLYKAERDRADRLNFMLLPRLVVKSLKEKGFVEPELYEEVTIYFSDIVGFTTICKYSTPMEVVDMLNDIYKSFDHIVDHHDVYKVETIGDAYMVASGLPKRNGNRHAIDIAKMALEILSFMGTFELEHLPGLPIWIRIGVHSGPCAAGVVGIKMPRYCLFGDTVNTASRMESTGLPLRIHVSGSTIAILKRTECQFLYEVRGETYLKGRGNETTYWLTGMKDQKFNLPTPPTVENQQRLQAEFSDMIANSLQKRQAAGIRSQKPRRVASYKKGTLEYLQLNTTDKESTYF

Take `CC(C)C[C@H](NC(=O)[C@@H]1CSSC[C@@H]2NC(=O)[C@H](CC(C)C)NC(=O)[C@H](CCC(=O)O)NC(=O)[C@@H](NC(=O)[C@H](CC(=O)O)NC(=O)[C@H](CC(=O)O)NC(=O)[C@@H](N)CC(N)=O)CSSC[C@H](NC(=O)[C@H](C)NC(=O)[C@H](C(C)C)NC(=O)[C@H](CC(N)=O)NC(=O)[C@H](C(C)C)NC2=O)C(=O)N[C@@H]([C@@H](C)O)C(=O)NCC(=O)N1)C(=O)O` (single isomer, unassigned) [huUgnA, Asn Asp Asp Cys Glu Leu Cys Val Asn Val Ala Cys Thr Gly Cys Leu, reference compound]: the “conversion from one isoform to the other during storage” value in data set [1] was “did not occur”. For the same compound, in data set [2], the “stability of identity and properties in vivo” value is listed as “sufficiently stable for use in acute animal studies”. In data set [2] (iv infusion, anesthetized rat), the “isomerization in vivo, LC-MS of urine at peak peptide excretion” value is reported as “essentially no isomerization had occurred”. For the same compound, the “return of urinary GC-C stimulating activity to baseline after infusion was terminated” value in data set [2] (iv infusion, anesthetized rat) is listed as “within an hour”. Further, the “time to appearance of GC-C stimulating activity in urine from start of infusion” value in data set [2] (iv infusion, anesthetized rat) is at most 20 min. Besides, in data set [2] (iv infusion, anesthetized rat), the “GC-C stimulating activity recovered in urine” value was “a significant amount”. Moreover, the “V (urine flow rate)” value with anesthetized rats (huUgnA 12 nmol, Infusion) is on record as 2.34 ± 0.14 μl/min/g KW; in the data set on anesthetized rats (huUgnA 12 nmol, Post-infuse), 2.73 ± 0.14 μl/min/g KW; in the data set with anesthetized rats (huUgnA 12 nmol, Pre-infuse) it was 2.07 ± 0.23 μl/min/g KW; in the data set on anesthetized rats (huUgnA 25 nmol, Infusion), 2.98 ± 0.28 μl/min/g KW; in the data set on anesthetized rats (huUgnA 25 nmol, Post-infuse, * p<0.05 vs time control), 3.53 ± 0.25* μl/min/g KW; with anesthetized rats (huUgnA 25 nmol, Pre-infuse), 2.13 ± 0.17 μl/min/g KW. The “V (urine flow rate)” value in the data set on anesthetized rats (huUgnA 50 nmol, Infusion) is on record as 2.32 ± 0.16 μl/min/g KW; in the data set with anesthetized rats (huUgnA 50 nmol, Post-infuse) it was 3.07 ± 0.20 μl/min/g KW; in the data set on anesthetized rats (huUgnA 50 nmol, Pre-infuse) it was 2.01 ± 0.13 μl/min/g KW; with anesthetized rats (huUgnA 100 nmol, Infusion), 2.48 ± 0.26 μl/min/g KW; with anesthetized rats (huUgnA 100 nmol, Post-infuse), 2.67 ± 0.23 μl/min/g KW; in the data set on anesthetized rats (huUgnA 100 nmol, Pre-infuse) it was 1.76 ± 0.22 μl/min/g KW. Besides, the “V (urine flow rate)” value is recorded as 2.84 ± 0.40 μl/min/g KW with anesthetized rats (huUgnA 200 nmol, Infusion); 4.12 ± 0.35** μl/min/g KW in the data set on anesthetized rats (huUgnA 200 nmol, Post-infuse, ** p<0.01 vs time control); 2.14 ± 0.39 μl/min/g KW in the data set with anesthetized rats (huUgnA 200 nmol, Pre-infuse). Further, the EC50 in data set [3] (read-out: EC50, cGMP responses) was around 100 nM.
For the compound `CC(C)C[C@H](NC(=O)[C@@H]1CSSC[C@@H]2NC(=O)[C@H](CC(C)C)NC(=O)[C@H](CCC(=O)O)NC(=O)[C@@H](NC(=O)[C@H](CC(=O)O)NC(=O)[C@H](CC(=O)O)NC(=O)[C@@H](N)CC(N)=O)CSSC[C@H](NC(=O)[C@H](C)NC(=O)[C@H](C(C)C)NC(=O)[C@H](CC(N)=O)NC(=O)[C@H](C(C)C)NC2=O)C(=O)N[C@@H]([C@@H](C)O)C(=O)NCC(=O)N1)C(=O)O` (single isomer, unassigned) [huUgnB, Asn Asp Asp Cys Glu Leu Cys Val Asn Val Ala Cys Thr Gly Cys Leu], the “conversion from one isoform to the other during storage” value in data set [1] was “did not occur”. Also, the “stability of identity and properties in vivo” value in data set [2] was “sufficiently stable for use in acute animal studies”. Also, the “isomerization in vivo, LC-MS of urine at peak peptide excretion” value in data set [2] (iv infusion, anesthetized rat) is on record as “a clearly discernable huUgnB signal along with a barely detectible huUgnA signal”. In addition, the “GC-C stimulating activity recovered in urine” value in data set [2] (iv infusion, anesthetized rat) was “very little”. In addition, the “V (urine flow rate)” value in the data set with anesthetized rats (huUgnB 9 nmol, Infusion) is 2.22 ± 0.19 μl/min/g KW; with anesthetized rats (huUgnB 9 nmol, Post-infuse), 2.55 ± 0.18 μl/min/g KW; with anesthetized rats (huUgnB 9 nmol, Pre-infuse), 1.84 ± 0.28 μl/min/g KW; in the data set with anesthetized rats (huUgnB 18 nmol, Infusion) it was 2.40 ± 0.15 μl/min/g KW; in the data set on anesthetized rats (huUgnB 18 nmol, Post-infuse), 3.11 ± 0.32 μl/min/g KW; in the data set on anesthetized rats (huUgnB 18 nmol, Pre-infuse), 1.79 ± 0.14 μl/min/g KW. The “V (urine flow rate)” value is given as 2.53 ± 0.16 μl/min/g KW in the data set with anesthetized rats (huUgnB 35 nmol, Infusion); 3.84 ± 0.27*** μl/min/g KW with anesthetized rats (huUgnB 35 nmol, Post-infuse, *** p<0.005 vs time control); 2.38 ± 0.25 μl/min/g KW in the data set on anesthetized rats (huUgnB 35 nmol, Pre-infuse); 3.11 ± 0.71 μl/min/g KW in the data set with anesthetized rats (huUgnB 70 nmol, Infusion); 3.92 ± 0.5* μl/min/g KW in the data set with anesthetized rats (huUgnB 70 nmol, Post-infuse, * p<0.05 vs time control); 2.04 ± 0.20 μl/min/g KW with anesthetized rats (huUgnB 70 nmol, Pre-infuse). Moreover, the “V (urine flow rate)” value is reported as 2.71 ± 0.40 μl/min/g KW in the data set on anesthetized rats (huUgnB 140 nmol, Infusion); 4.50 ± 0.80** μl/min/g KW in the data set on anesthetized rats (huUgnB 140 nmol, Post-infuse, ** p<0.01 vs time control); 2.24 ± 0.14 μl/min/g KW in the data set on anesthetized rats (huUgnB 140 nmol, Pre-infuse). Besides, in data set [3], the “potency, fold less potent than the A isomer” value is listed as “more than 100 fold”.

The values above are taken from patent publication US20120028897A1, “METHODS AND COMPOSITIONS FOR THE TREATMENT OF FLUID RETENTION DISORDERS” (priority 2008, published 2012).
